Among the data in PubChem BioAssay AID342 (DTP/NCI, 2004) are T/C values, retold here.

The structures appear in SMILES notation. Values joined by “and” are separate entries in the source; they are usually repeats but may differ in a detail not shown here. Equal values may be shown once.

The experiment has as its system Swiss mice, Sarcoma 180 sc, mean tumor weight T/C. Put plainly: NCI In Vivo Anticancer Drug Screen. Data for tumor model Sarcoma 180 (subcutaneous) in Swiss mice. As to conditions: endpoint: mean tumor weight, higher = larger tumour. The procedure:
The antitumor activity of compounds was measured in mice bearing transplantable tumors. Survival or tumor size were measured and the results are expressed as the measurement made in the treated group (T) divided by the measurement made in the vehicle treated control group (C). The tumor model used in this assay is Sarcoma 180 (subcutaneous) in Swiss mice

[1] abbreviates: dose: 3.0 mg/kg/injection, schedule: Q01DX007 (ip), vehicle: carboxymethylcellulose (CMC).
[2] abbreviates: dose: 3.0 mg/kg/injection, schedule: Q01DX007 (ip), vehicle: saline.

`O=C(NCCCCCCCCCCNC(=O)N1CC1)N1CC1`: the T/C (usually the result in the treated group divided by that in the control group, in per cent) is, setting by setting: (dose: 0.9 mg/kg/injection, schedule: Q01DX007 (ip), vehicle: carboxymethylcellulose (CMC)) 66 % of control and 83 % of control; (dose: 0.9 mg/kg/injection, schedule: Q01DX007 (ip), vehicle: saline) 70 % of control; (dose: 1.3 mg/kg/injection, schedule: Q01DX007 (ip), vehicle: carboxymethylcellulose (CMC)) 64 % of control and 65 % of control; (dose: 1.3 mg/kg/injection, schedule: Q01DX007 (ip), vehicle: saline) 67 % of control; (dose: 2.0 mg/kg/injection, schedule: Q01DX007 (ip), vehicle: carboxymethylcellulose (CMC)) 35 % of control and 43 % of control; (dose: 2.0 mg/kg/injection, schedule: Q01DX007 (ip), vehicle: saline) 48 % of control. The T/C reads like this: under setting [1], 10 % of control and 21 % of control; under setting [2], 34 % of control; (dose: 4.0 mg/kg/injection, schedule: Q01DX007 (ip), vehicle: carboxymethylcellulose (CMC)) 38 % of control.

Consider `O=C1CCCCC1C(=O)C(F)(F)F` (stereo unspecified), for which the T/C (dose: 27.75 mg/kg/injection, schedule: Q#A X014 (ip), vehicle: methylcellulose (MC)) was 64 % of control; the T/C (dose: 27.75 mg/kg/injection, schedule: Q#A X014 (ip), vehicle: saline) was 64 % of control; the T/C (dose: 41.65 mg/kg/injection, schedule: Q#A X014 (ip), vehicle: methylcellulose (MC)) was 79 % of control; the T/C (dose: 41.65 mg/kg/injection, schedule: Q#A X014 (ip), vehicle: saline) was 81 % of control; the T/C (dose: 55.0 mg/kg/injection, schedule: Q01DX007 (ip), vehicle: saline) is 61 % of control; the T/C (dose: 62.5 mg/kg/injection, schedule: Q#A X014 (ip), vehicle: methylcellulose (MC)) was 34 % of control. Also, the T/C is 28 % of control (dose: 62.5 mg/kg/injection, schedule: Q#A X014 (ip), vehicle: saline); 44 % of control (dose: 83.0 mg/kg/injection, schedule: Q01DX007 (ip), vehicle: saline); 35 % of control and 52 % of control (dose: 93.75 mg/kg/injection, schedule: Q#A X014 (ip), vehicle: methylcellulose (MC)); 37 % of control (dose: 93.75 mg/kg/injection, schedule: Q#A X014 (ip), vehicle: saline); 40 % of control (dose: 110.0 mg/kg/injection, schedule: Q02DX004 (ip), vehicle: saline); 62 % of control (dose: 125.0 mg/kg/injection, schedule: Q01DX007 (ip), vehicle: saline). Also, the T/C runs as follows: (dose: 165.0 mg/kg/injection, schedule: Q03DX003 (ip), vehicle: saline) 63 % of control; (dose: 166.0 mg/kg/injection, schedule: Q02DX004 (ip), vehicle: saline) 97 % of control; (dose: 187.0 mg/kg/injection, schedule: Q01DX007 (ip), vehicle: saline) 47 % of control; (dose: 250.0 mg/kg/injection, schedule: Q02DX004 (ip), vehicle: saline) 82 % of control; (dose: 352.0 mg/kg/injection, schedule: Q03DX003 (ip), vehicle: carboxymethylcellulose (CMC)) 83 % of control; (dose: 561.0 mg/kg/injection, schedule: Q03DX003 (ip), vehicle: saline) 53 % of control.

For the compound `Nc1nc(=O)n(C2CC(O)C(CO)O2)cc1Br` (stereo unspecified), the T/C is 58 % of control (dose: 62.5 mg/kg/injection, schedule: Q#A X014 (ip), vehicle: carboxymethylcellulose (CMC)); 57 % of control (dose: 125.0 mg/kg/injection, schedule: Q#A X014 (ip), vehicle: carboxymethylcellulose (CMC)); 50 % of control (dose: 250.0 mg/kg/injection, schedule: Q#A X014 (ip), vehicle: carboxymethylcellulose (CMC)).

In the case of `CN(C)NCCC#N`, the T/C (dose: 15.0 mg/kg/injection, schedule: Q#A X014 (ip), vehicle: methylcellulose (MC)) was 91 % of control; the T/C (dose: 22.5 mg/kg/injection, schedule: Q#A X014 (ip), vehicle: methylcellulose (MC)) is 52 % of control; the T/C (dose: 33.5 mg/kg/injection, schedule: Q#A X014 (ip), vehicle: methylcellulose (MC)) was 49 % of control; the T/C (dose: 50.0 mg/kg/injection, schedule: Q#A X014 (ip), vehicle: methylcellulose (MC)) was 39 % of control.

For the compound `O=C(O)C(=O)O.[U]`, the T/C was 85 % of control (dose: 1.5 mg/kg/injection, schedule: Q01DX007 (ip), vehicle: saline); 79 % of control under setting [2]; 82 % of control (dose: 6.0 mg/kg/injection, schedule: Q01DX007 (ip), vehicle: saline); 32 % of control (dose: 18.5 mg/kg/injection, schedule: Q01DX007 (ip), vehicle: saline); 33 % of control and 42 % of control (dose: 27.8 mg/kg/injection, schedule: Q01DX007 (ip), vehicle: saline); 41 % of control (dose: 41.7 mg/kg/injection, schedule: Q01DX007 (ip), vehicle: saline). Also, the T/C runs as follows: (dose: 62.5 mg/kg/injection, schedule: Q01DX007 (ip), vehicle: saline) 35 % of control; (dose: 93.8 mg/kg/injection, schedule: Q01DX007 (ip), vehicle: saline) 39 % of control.

As for `NCCCC(NC(=O)CCCCCCCCN=C(N)N)C(O)CCCCCCCCN=C(N)N` (stereo unspecified), the T/C was 100 % of control (dose: 0.38 mg/kg/injection, schedule: Q01DX007 (ip), vehicle: carboxymethylcellulose (CMC)); 97 % of control (dose: 0.75 mg/kg/injection, schedule: Q01DX007 (ip), vehicle: carboxymethylcellulose (CMC)); 113 % of control (dose: 1.5 mg/kg/injection, schedule: Q01DX007 (ip), vehicle: carboxymethylcellulose (CMC)); 76 % of control under setting [1]; 92 % of control (dose: 6.0 mg/kg/injection, schedule: Q01DX007 (ip), vehicle: carboxymethylcellulose (CMC)); 123 % of control (dose: 9.0 mg/kg/injection, schedule: Q01DX007 (ip), vehicle: carboxymethylcellulose (CMC)). For the same compound, the T/C runs as follows: (dose: 12.0 mg/kg/injection, schedule: Q01DX007 (ip), vehicle: carboxymethylcellulose (CMC)) 68 % of control; (dose: 15.0 mg/kg/injection, schedule: Q01DX007 (ip), vehicle: carboxymethylcellulose (CMC)) 47 % of control.

As for `Nc1nc2ncc(CNc3ccc(C(=O)NC(CCC(=O)O)C(=O)O)cc3)nc2c(=O)[nH]1` (stereo unspecified), the T/C (dose: 6.31 mg/kg/injection, schedule: Q01DX007 (ip), vehicle: carboxymethylcellulose (CMC)) is 84 % of control; the T/C (dose: 12.62 mg/kg/injection, schedule: Q01DX007 (ip), vehicle: carboxymethylcellulose (CMC)) is 76 % of control; the T/C (dose: 25.25 mg/kg/injection, schedule: Q01DX007 (ip), vehicle: carboxymethylcellulose (CMC)) is 56 % of control; the T/C (dose: 50.5 mg/kg/injection, schedule: Q01DX007 (ip), vehicle: carboxymethylcellulose (CMC)) was 74 % of control.

In the case of `Cc1ccccc1N(C=O)c1ccccc1C`, the T/C reads like this: (dose: 120.0 mg/kg/injection, schedule: Q01DX007 (ip), vehicle: methylcellulose (MC)) 164 % of control; (dose: 200.0 mg/kg/injection, schedule: Q01DX007 (ip), vehicle: methylcellulose (MC)) 150 % of control; (dose: 1000.0 mg/kg/injection, schedule: Q01DX007 (ip), vehicle: methylcellulose (MC)) 104 % of control.

Consider `CC[C@](C)(O)C(=O)O[C@H]1C(=O)O[C@@H]2C[C@H]3C(C)=C[C@H](O)[C@@H](O)[C@]3(C)[C@H]3[C@@]4(O)OC[C@]32[C@@H]1[C@@H](C)[C@H]4O`, for which the T/C by setting is: (dose: 0.5 mg/kg/injection, schedule: Q01DX007 (sc), vehicle: olive oil, sesame oil, peanut oil) 60 % of control; (dose: 1.0 mg/kg/injection, schedule: Q01DX007 (sc), vehicle: olive oil, sesame oil, peanut oil) 64 % of control; (dose: 2.0 mg/kg/injection, schedule: Q01DX007 (sc), vehicle: olive oil, sesame oil, peanut oil) 67 % of control; (dose: 4.0 mg/kg/injection, schedule: Q01DX007 (sc), vehicle: olive oil, sesame oil, peanut oil) 77 % of control and 80 % of control; (dose: 6.0 mg/kg/injection, schedule: Q01DX007 (sc), vehicle: olive oil, sesame oil, peanut oil) 97 % of control; (dose: 9.0 mg/kg/injection, schedule: Q01DX007 (sc), vehicle: olive oil, sesame oil, peanut oil) 93 % of control.

For the compound `CN(C)[C@@H]1C(=O)C(C(N)=O)=C(O)[C@@]2(O)C(=O)C3=C(O)c4c(O)cccc4C[C@H]3C[C@@H]12`, the T/C is, setting by setting: (dose: 20.0 mg/kg/injection, schedule: Q#A X014 (ip), vehicle: other) 64 % of control; (dose: 30.0 mg/kg/injection, schedule: Q#A X014 (ip), vehicle: other) 61 % of control; (dose: 45.0 mg/kg/injection, schedule: Q#A X014 (ip), vehicle: other) 31 % of control.
